# According to ChEMBL document CHEMBL2321831, “Design, synthesis, and biological evaluations of novel 7-[7-amino-7-methyl-5-azaspiro[2.4]heptan-5-yl]-8-methoxyquinolines with potent antibacterial activity against respiratory pathogens” (J Med Chem, 2013):
# Active and inactive are the calls of the source. No cut-off for these calls is given here.
# How the values were obtained:
# Enterococcus faecalis = test: Antibacterial activity against Enterococcus faecalis ATCC 19433 after 18 hrs by microbroth dilution method; type: functional; settings: ATCC 19433, 18 h
# Mus musculus [1] = test: Toxicity in SLC:ddY mouse assessed as mortality at 50 mg/kg, iv after 7 days; type: organism-based; design: dose 50 mg/kg, route intravenous; settings: in vivo, 168 h
# [2] = AUC (0 to 8 hrs) in Crj:CD rat lung at 5 mg/kg, po; type: ADME, organism-based; design: time < 8 hr, dose 5 mg/kg, route oral
# Streptococcus pneumoniae [3] = test: Antibacterial activity against quinolone-sensitive Streptococcus pneumoniae infected in po dosed CBA/JNCrj mouse pneumonia model administered bid measured day after final administration of drug; type: functional, organism-based
# [4] = Primary phase half life in cynomolgus monkey serum at 5 mg/kg, iv; type: ADME, organism-based, Macaca fascicularis; design: dose 5 mg/kg, route intravenous; settings: read-out: alphat1/2 (converted)
# Streptococcus pneumoniae [5] = test: Antibacterial activity against quinolone, penicillin-resistant Streptococcus pneumoniae 104835 after 18 hrs by microbroth dilution method; type: functional; settings: Streptococcus pneumoniae, 104835, 18 h
# Streptococcus pneumoniae [6] = test: Antibacterial activity against quinolone-resistant Streptococcus pneumoniae infected in sc dosed CBA/JNCrj mouse pneumonia model administered bid measured day after final administration of drug; type: functional, organism-based
# Mus musculus [7] = test: Toxicity in SLC:ddY mouse assessed as induction of micronucleus formation at 50 mg/kg, iv after 24 to 48 hrs by fluorescence microscopic analysis; type: organism-based; design: dose 50 mg/kg, route intravenous; settings: in vivo
# Staphylococcus aureus [8] = test: Antibacterial activity against Staphylococcus aureus FDA 209-P after 18 hrs by microbroth dilution method; type: functional
# Cytochrome P450 3A4 = Cytochrome P450 3A4 (Homo sapiens, UniProt P08684); test: Inhibition of CYP3A4 in human liver microsomes assessed as 1'-hydroxylation of midazolam; type: ADME, Microsome
# [9] = test system: Staphylococcus epidermidis; test: Antibacterial activity against Staphylococcus epidermidis 56500 after 18 hrs by microbroth dilution method; type: functional; settings: Staphylococcus epidermidis, 56500, 18 h
# [10] = Drug recovery in cynomolgus monkey urine at 5 mg/kg, po after 24 hrs; type: ADME, organism-based, Macaca fascicularis; design: dose 5 mg/kg, route oral; settings: read-out: Drug recovery
# Pseudomonas aeruginosa = test: Antibacterial activity against Pseudomonas aeruginosa PAO1 after 18 hrs by microbroth dilution method; type: functional; settings: PAO1, 18 h
# [11] = test system: Mycoplasmoides pneumoniae; test: Antibacterial activity against Mycoplasma pneumoniae ATCC 29085 after 18 hrs by microbroth dilution method; type: functional; settings: ATCC 29085, 18 h
# [12] = Half life in cynomolgus monkey serum at 5 mg/kg, po; type: ADME, organism-based, Macaca fascicularis; design: dose 5 mg/kg, route oral
# [13] = Chloroform-phosphate buffer apparent partition coefficient of the compound, P at pH 7.4
# Staphylococcus aureus [14] = test: Antibacterial activity against levofloxacin-resistant and methicillin-resistant Staphylococcus aureus 870307 after 18 hrs by microbroth dilution method; type: functional; settings: Staphylococcus aureus, 870307, 18 h
# [15] = Drug recovery in cynomolgus monkey urine at 5 mg/kg, iv after 24 hrs; type: ADME, organism-based, Macaca fascicularis; design: dose 5 mg/kg, route intravenous; settings: read-out: Drug recovery
# [16] = Ratio of AUC (0 to 8 hrs) in Crj:CD rat lung to AUC (0 to 8 hrs) in Crj:CD rat serum at 5 mg/kg, po; type: ADME, organism-based; design: dose 5 mg/kg, route oral; settings: read-out: Ratio AUC
# Streptococcus pyogenes = test: Antibacterial activity against Streptococcus pyogenes G-36 after 18 hrs by microbroth dilution method; type: functional; settings: G-36, 18 h
# [17] = Plasma protein binding in human at 5 ug/mL by ultrafiltration method; type: ADME, cell-free; settings: read-out: PPB (converted)
# [18] = Cmax in cynomolgus monkey serum at 5 mg/kg, po; type: ADME, organism-based, Macaca fascicularis; design: dose 5 mg/kg, route oral
# Escherichia coli = test: Antibacterial activity against Escherichia coli NIHJ after 18 hrs by microbroth dilution method; type: functional
# Moraxella catarrhalis = test: Antibacterial activity against Moraxella catarrhalis ATCC 25238 after 18 hrs by microbroth dilution method; type: functional; settings: ATCC 25238, 18 h
# [19] = AUC (0 to 8 hrs) in Crj:CD rat liver at 5 mg/kg, po; type: ADME, organism-based; design: time < 8 hr, dose 5 mg/kg, route oral
# Streptococcus pneumoniae [20] = test: Ratio of MIC for levofloxacin to compound MIC for penicillin-susceptible Streptococcus pneumoniae J24; type: functional
# [21] = test system: Mycoplasmoides pneumoniae; test: Ratio of MIC for levofloxacin to compound MIC for Mycoplasma pneumoniae 18-1; type: functional
# [22] = Drug recovery in Crj:CD rat urine at 5 mg/kg, po after 24 hrs; type: ADME, organism-based; design: dose 5 mg/kg, route oral; settings: read-out: Drug recovery
# Bacillus subtilis = test: Ratio of MIC for levofloxacin to compound MIC for Bacillus subtilis IID 685; type: functional
# [23] = Ratio of AUC (0 to 8 hrs) in Crj:CD rat kidney to AUC (0 to 8 hrs) in Crj:CD rat serum at 5 mg/kg, po; type: ADME, organism-based; design: dose 5 mg/kg, route oral; settings: read-out: Ratio AUC
# Mus musculus [24] = test: Toxicity in SLC:ddY mouse assessed as induction of micronucleus formation at 150 mg/kg, iv after 24 to 48 hrs by fluorescence microscopic analysis; type: organism-based; design: dose 150 mg/kg, route intravenous; settings: in vivo
# Cytochrome P450 3A4, sequence (P08684 whole entry): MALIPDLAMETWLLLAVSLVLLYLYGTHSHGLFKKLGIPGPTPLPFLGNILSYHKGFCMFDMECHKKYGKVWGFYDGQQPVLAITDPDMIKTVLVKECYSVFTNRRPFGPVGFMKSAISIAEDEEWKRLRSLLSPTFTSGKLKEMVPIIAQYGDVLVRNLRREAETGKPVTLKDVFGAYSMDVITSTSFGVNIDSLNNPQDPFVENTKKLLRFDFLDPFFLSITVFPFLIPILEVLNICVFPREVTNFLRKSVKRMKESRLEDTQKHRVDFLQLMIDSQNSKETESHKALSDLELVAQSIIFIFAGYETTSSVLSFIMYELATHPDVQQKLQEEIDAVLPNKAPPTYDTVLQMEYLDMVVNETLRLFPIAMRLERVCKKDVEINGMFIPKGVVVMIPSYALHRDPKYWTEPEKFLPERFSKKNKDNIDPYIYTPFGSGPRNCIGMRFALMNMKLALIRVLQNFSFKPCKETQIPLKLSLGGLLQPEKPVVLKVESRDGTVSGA
smiles,measurement,setting,value
COc1c(N2CC3(CC3)[C@](C)(N)C2)c(F)cc2c(=O)c(C(=O)O)cn([C@@H]3C[C@@H]3F)c12,MIC,Enterococcus faecalis,0.2 µg/mL
same,Activity,Mus musculus [1],Non-toxic
same,AUC(0-t) at 8 h,[2],13700 ng·h/mL
same,Activity,Streptococcus pneumoniae [3],Active
same,half-life,[4],4.8 h
same,MIC,Streptococcus pneumoniae [5],0.39 µg/mL
same,Activity,Streptococcus pneumoniae [6],Active
same,Activity,Mus musculus [7],Non-toxic
same,MIC,Staphylococcus aureus [8],0.025 µg/mL
same,inhibition (INH),Cytochrome P450 3A4,Not Active
same,MIC,[9],0.1 µg/mL
same,dose excreted at 24 h,[10],61.3%
same,MIC,Pseudomonas aeruginosa,0.78 µg/mL
same,MIC,[11],0.12 µg/mL
same,half-life,[12],4.8 h
same,P,[13],19.2
same,MIC,Staphylococcus aureus [14],0.39 µg/mL
same,dose excreted at 24 h,[15],69.8%
same,Kp,[16],4.4
same,MIC,Streptococcus pyogenes,0.2 µg/mL
same,fraction unbound at 5 ug/mL,[17],0.653
same,Cmax,[18],2200 ng/mL
same,MIC,Escherichia coli,0.012 µg/mL
same,MIC,Moraxella catarrhalis,0.05 µg/mL
same,AUC(0-t) at 8 h,[19],32100 ng·h/mL
same,Ratio,Streptococcus pneumoniae [20],>4
same,Ratio,[21],4
same,dose excreted at 24 h,[22],32%
same,Ratio,Bacillus subtilis,>4
same,Kp,[23],9
same,Activity,Mus musculus [24],Non-toxic
